Among the test systems are HOP-62 NSCLC; K-562 leukemia; OVCAR-3 ovarian; U251 CNS; UACC-257 melanoma; HS 578T breast; T-47D breast; RXF 393 renal; ACHN renal; CCRF-CEM leukemia.
Holding throughout (experiment): growth of human tumour cells (NCI), 48 h

Molecules are shown by their SMILES.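 Tested at 5 concentrations; 48 h exposure; 96-well plates; endpoints linearly interpolated, else capped at highest concentration. GI50 = concentration required for 50% inhibition of growth. The concentration for full growth arrest is given as TGI.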

Regarding `CCC1(O)C(=O)OCc2c1cc1n(c2=O)Cc2cc3ccccc3nc2-1` (centres undefined), the TGI in the test on HOP-62 NSCLC was 0.319 µM; with K-562 leukemia it was over 100 µM; in the test on OVCAR-3 ovarian it was 2.72 µM; with U251 CNS, 0.57 µM; in the test with UACC-257 melanoma it was 3.57 µM; in the test with HS 578T breast, over 100 µM. Also, the TGI with T-47D breast is over 33.6 µM; with RXF 393 renal it was 0.527 µM; in the test with ACHN renal, 0.519 µM.

For `CC1=C2C(=C[C@@](C)(CO)[C@@H]2OC(=O)N(C)CCN(C)C(=O)OC(C)(C)C)C(=O)[C@](C)(O)C12CC2`, the GI50 in the test with K-562 leukemia is 21.4 µM; with OVCAR-3 ovarian, 2.31 µM; with U251 CNS it was 5.25 µM; in the test on UACC-257 melanoma, 10.1 µM; with HS 578T breast, 15.3 µM; with T-47D breast it was 5.05 µM. In addition, the GI50 in the test on CCRF-CEM leukemia is 18.8 µM; in the test on RXF 393 renal, 1.22 µM; with ACHN renal it was 2.6 µM. For the same compound, the TGI with K-562 leukemia was over 50 µM; in the test with OVCAR-3 ovarian it was 21 µM; with U251 CNS, 46.1 µM; in the test on UACC-257 melanoma, 26.3 µM; with HS 578T breast, over 50 µM; in the test on T-47D breast it was 35.2 µM. The TGI is over 50 µM with CCRF-CEM leukemia, 4.06 µM in the test with RXF 393 renal and 32.6 µM in the test with ACHN renal.

Regarding `CNC(=S)Nc1ccc(OC)c2ccccc12`, the TGI with HOP-62 NSCLC was over 10 µM; with K-562 leukemia, over 10 µM; in the test with OVCAR-3 ovarian it was 6.72 µM; in the test with U251 CNS, over 10 µM; in the test with UACC-257 melanoma, over 10 µM; in the test with HS 578T breast, over 10 µM. For the same compound, the TGI in the test on T-47D breast, with CCRF-CEM leukemia and with ACHN renal was over 10 µM in each case.

As for `CC(=O)c1c(C(F)(F)F)n([O-])c2ccccc2[n+]1=O`, the GI50 in the test with HOP-62 NSCLC was 2.34 µM; in the test on K-562 leukemia, 1.26 µM; with OVCAR-3 ovarian, 0.746 µM; in the test with U251 CNS it was 2.17 µM; in the test on UACC-257 melanoma it was 2.77 µM; with HS 578T breast, 1.97 µM. In addition, the GI50 in the test on T-47D breast is 0.748 µM; in the test on RXF 393 renal, 1.57 µM; in the test on ACHN renal, 1.05 µM. In addition, the TGI was 11.9 µM with HOP-62 NSCLC; over 100 µM in the test on K-562 leukemia; 2.61 µM in the test with OVCAR-3 ovarian; 14.5 µM with U251 CNS; 13.6 µM with UACC-257 melanoma; 6.5 µM with HS 578T breast. Also, the TGI in the test with T-47D breast was found to be 4.02 µM; with RXF 393 renal it was 6.03 µM; in the test on ACHN renal, 12.3 µM.

Consider `Oc1cccc(Nc2nc3ccccc3c3occc23)c1`, for which the GI50 is 15.1 µM with HOP-62 NSCLC; 4.81 µM in the test with K-562 leukemia; 2.09 µM in the test on OVCAR-3 ovarian; 14 µM in the test with U251 CNS; 15.9 µM with UACC-257 melanoma; 13.9 µM in the test with HS 578T breast. In the test with ACHN renal, the GI50 was 7.69 µM. In addition, the TGI worked out at 33.5 µM in the test with HOP-62 NSCLC; 55.8 µM with K-562 leukemia; 12.9 µM in the test with OVCAR-3 ovarian; 27.2 µM with U251 CNS; 29.4 µM in the test with UACC-257 melanoma; 31.4 µM in the test on HS 578T breast. Also, the values for the TGI in the test on T-47D breast and in the test on ACHN renal were 21.2 µM and 21.4 µM, respectively.

As for `CN1CCN(C(=S)N(C)C(=O)c2ccco2)CC1`, the TGI with K-562 leukemia, with OVCAR-3 ovarian, with U251 CNS, with UACC-257 melanoma, in the test with HS 578T breast and with T-47D breast was over 100 µM throughout. For the same compound, the TGI in the test on CCRF-CEM leukemia, with RXF 393 renal and with ACHN renal was over 100 µM each time.

Turning to `COc1ccc(C2=Nn3c(nnc3-c3cc(Cl)cc(Cl)c3Cl)SC2)cc1`, the GI50 with HOP-62 NSCLC was 0.478 µM; with K-562 leukemia it was 0.44 µM; with OVCAR-3 ovarian, 0.173 µM; in the test on U251 CNS it was 0.412 µM; in the test on UACC-257 melanoma it was 0.362 µM; in the test with HS 578T breast, 0.376 µM. The GI50 is 0.519 µM in the test on CCRF-CEM leukemia and 0.859 µM in the test on ACHN renal. The TGI in the test with HOP-62 NSCLC was over 36.2 µM; with K-562 leukemia it was over 31.6 µM; in the test with OVCAR-3 ovarian, 0.772 µM; in the test with U251 CNS, 24.7 µM; with UACC-257 melanoma it was over 95.3 µM; with HS 578T breast, 13.6 µM. Also, the TGI in the test with CCRF-CEM leukemia and in the test on ACHN renal was over 100 µM each time.

On to `CC(=O)Nc1ccc(-c2cc(C(=O)O)c3cc4ccccc4cc3n2)cc1`, for which the TGI in the test on HOP-62 NSCLC, in the test on K-562 leukemia, in the test with OVCAR-3 ovarian, in the test on U251 CNS, in the test with UACC-257 melanoma and in the test with HS 578T breast was over 100 µM each time. Further, the TGI in the test with T-47D breast, in the test with RXF 393 renal and in the test with ACHN renal was over 100 µM in each case.

Consider `COc1cccc(-c2nc3cc(NC(=O)c4ccc(Cl)c(C#N)c4)ccc3o2)c1`, for which the GI50 in the test with HOP-62 NSCLC was 12.9 µM; in the test on K-562 leukemia it was 2.69 µM; with UACC-257 melanoma, 3.81 µM; with HS 578T breast, 8.89 µM; with T-47D breast it was 3.75 µM; in the test with CCRF-CEM leukemia, over 100 µM. Besides, in the test with RXF 393 renal, the GI50 is 3.12 µM. For the same compound, the TGI in the test with HOP-62 NSCLC, in the test on K-562 leukemia, in the test with UACC-257 melanoma, with HS 578T breast, in the test on T-47D breast and in the test on CCRF-CEM leukemia was over 100 µM each time. Also, the TGI with RXF 393 renal turned out to be 9.45 µM.

Consider `COc1ccc(-c2noc(C(=O)O)c2-c2cc(OC)c(OC)c(OC)c2)cc1`, for which the GI50 with HOP-62 NSCLC is 3.82 µM; in the test on K-562 leukemia it was 0.609 µM; in the test on OVCAR-3 ovarian it was 1.71 µM; with U251 CNS, 4.65 µM; in the test with UACC-257 melanoma, over 100 µM; in the test with HS 578T breast it was 3.38 µM. In addition, the GI50 is 3.52 µM in the test with CCRF-CEM leukemia, 1.94 µM in the test on RXF 393 renal and 7.42 µM with ACHN renal. The TGI in the test with HOP-62 NSCLC, in the test on K-562 leukemia, in the test on OVCAR-3 ovarian, in the test on U251 CNS, with UACC-257 melanoma and in the test on HS 578T breast was over 100 µM throughout. Moreover, the TGI is over 100 µM in the test with CCRF-CEM leukemia, 6.56 µM with RXF 393 renal and over 100 µM with ACHN renal.

For `CC(=O)c1c(O)c(C)c(O)c(Cc2c(O)c3c(c(C(=O)/C=C/c4ccccc4)c2O)OC(C)(C)C=C3)c1O`, the TGI in the test with K-562 leukemia was 14.7 µM; in the test with OVCAR-3 ovarian, 15.8 µM; in the test with U251 CNS, 14.5 µM; in the test with UACC-257 melanoma, 7.16 µM; in the test on HS 578T breast, over 100 µM; with T-47D breast, 7.89 µM. The values for the TGI in the test on CCRF-CEM leukemia and in the test on ACHN renal were over 100 µM and 34.3 µM, respectively.

Turning to `N#C[Se]Cc1cc(-c2ccccc2)n(-c2ccc(S(N)(=O)=O)cc2)n1`, the GI50 in the test with K-562 leukemia was 1.15 µM; in the test on OVCAR-3 ovarian it was 1.18 µM; in the test with U251 CNS it was 0.544 µM; with UACC-257 melanoma, 2.21 µM; with HS 578T breast it was 0.637 µM; in the test on T-47D breast, 2.19 µM. Also, the GI50 was 0.914 µM with CCRF-CEM leukemia, 0.542 µM in the test on RXF 393 renal and 1.98 µM in the test on ACHN renal. Also, the TGI is 9.88 µM in the test with K-562 leukemia; 2.98 µM in the test on OVCAR-3 ovarian; 1.78 µM in the test with U251 CNS; 6.63 µM with UACC-257 melanoma; 5.21 µM in the test with HS 578T breast; 7.28 µM in the test on T-47D breast. Further, the TGI in the test on CCRF-CEM leukemia is over 27.3 µM; in the test on RXF 393 renal, 1.92 µM; in the test on ACHN renal, 4.22 µM.

As to `COc1cc2c(c3c1c(=O)c1ccccc1n3C)C=CC1(CCCC1)O2`, the TGI in the test with HOP-62 NSCLC turned out to be 28.7 µM; in the test on K-562 leukemia it was 21.7 µM; in the test on OVCAR-3 ovarian it was 38.1 µM; in the test with U251 CNS it was 31.9 µM; in the test on UACC-257 melanoma, 31 µM; in the test with HS 578T breast it was 9.75 µM. Besides, the results for the TGI in the test on CCRF-CEM leukemia, in the test on RXF 393 renal and in the test with ACHN renal were 53.9 µM, 22.8 µM and 32.7 µM, respectively.

As for `Clc1ccc(-c2cn3ccnc3c(-c3ccc(Cl)cc3)n2)cc1`, the GI50 in the test on HOP-62 NSCLC was 31.4 µM; with K-562 leukemia it was 2.25 µM; in the test with OVCAR-3 ovarian, 16.8 µM; in the test with U251 CNS, 12.9 µM; in the test with UACC-257 melanoma, 2.58 µM; with HS 578T breast, 26.3 µM. For the same compound, the GI50 in the test with RXF 393 renal is 3.57 µM; in the test with ACHN renal it was 13 µM. Also, the TGI was over 100 µM in the test on HOP-62 NSCLC; over 100 µM in the test with K-562 leukemia; over 100 µM in the test on OVCAR-3 ovarian; 57.4 µM in the test with U251 CNS; 33.9 µM in the test on UACC-257 melanoma; 92.4 µM in the test with HS 578T breast. For the same compound, the TGI is over 100 µM with RXF 393 renal and 52.3 µM in the test on ACHN renal.

Take `c1ccc(C2ONC3=NCCN32)cc1` (centres undefined): the GI50 in the test with HOP-62 NSCLC was 49.4 µM; in the test with K-562 leukemia, 16.1 µM; in the test on OVCAR-3 ovarian, 20.5 µM; in the test on U251 CNS, 55 µM; with UACC-257 melanoma, over 100 µM; in the test with T-47D breast, 44 µM. Besides, the GI50 in the test with CCRF-CEM leukemia was 21.6 µM; with RXF 393 renal it was 82.9 µM; with ACHN renal, 41.9 µM. Besides, the TGI was over 100 µM in the test with HOP-62 NSCLC; over 100 µM in the test with K-562 leukemia; 66.3 µM in the test on OVCAR-3 ovarian; over 100 µM in the test with U251 CNS; over 100 µM with UACC-257 melanoma; over 100 µM in the test with T-47D breast. For the same compound, the TGI is 53.4 µM in the test on CCRF-CEM leukemia, over 100 µM in the test on RXF 393 renal and over 100 µM with ACHN renal.
